Key:
Test in all cases: fitness (endpoint OD595 vs no drug) (fraction); higher = more growth
[1] = system: S. aureus Newman
In short: (§1)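 Fitness was measured as bacterial growth in 384-well plates inoculated at OD595 0.01 (30 µl, or 55 µl for S. pneumoniae). Media were TSB, LB Lennox or CY, at 37 °C. OD595 was read every 30 min for 14 h and background-subtracted against the first reading. Fitness is OD595 at the transition into stationary phase divided by the robust mean of no-drug control wells, capped at 1.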

[2] = system: S. pneumoniae D39V
In short: as §1

[3] = system: B. subtilis 168
In short: as §1

[4] = system: S. aureus DSM 20231
In short: as §1
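Further: OD595 on entry to stationary phase over no-drug wells; at most 1.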

CCCCCCCCCC(=O)N[C@@H](Cc1c[nH]c2ccccc12)C(=O)N[C@H](CC(N)=O)C(=O)N[C@@H](CC(=O)O)C(=O)N[C@@H]1C(=O)NCC(=O)N[C@@H](CCCN)C(=O)N[C@@H](CC(=O)O)C(=O)N[C@H](C)C(=O)N[C@@H](CC(=O)O)C(=O)NCC(=O)N[C@H](CO)C(=O)N[C@@H]([C@H](C)CC(=O)O)C(=O)N[C@@H](CC(=O)c2ccccc2N)C(=O)O[C@@H]1C [Daptomycin] + CC1=C(C(=O)O)N2C(=O)[C@@H](NC(=O)[C@H](N)c3ccccc3)[C@H]2SC1 [Cephalexin]
fitness
Conditions | first compound 0.125 µg/mL | first compound 0.25 µg/mL | first compound 0.5 µg/mL | first compound 1 µg/mL | first compound 2 µg/mL | first compound 4 µg/mL
[1], partner 0.25 µg/mL | 0.956 | 0.962 | 0.984 | – | – | –
[1], partner 0.5 µg/mL | 0.992 | ≥ 1 | 0.996 | – | – | –
[1], partner 1 µg/mL | 0.991 | ≥ 1 | ≥ 1 | – | – | –
[2], partner 1 µg/mL | – | – | – | 0.452 | 0.479 | 0.449
[2], partner 2 µg/mL | – | – | – | 0.065 | 0.0675 | 0.0521
[2], partner 4 µg/mL | – | – | – | 0.0361 | 0.0644 | 0.0719
[3], partner 0.125 µg/mL | 0.897 | 0.879 | 0.872 | – | – | –
[3], partner 0.25 µg/mL | 0.888 | 0.892 | 0.879 | – | – | –
[3], partner 0.5 µg/mL | 0.879 | 0.957 | 0.835 | – | – | –

fitness, one replicate
Conditions | partner 0.125 µg/mL | partner 0.25 µg/mL | partner 0.5 µg/mL | partner 1 µg/mL
[2], first compound 1 µg/mL | 0.903 | 0.898 | 0.896 | –
[2], first compound 2 µg/mL | 0.922 | 0.857 | 0.891 | –
[2], first compound 4 µg/mL | 0.977 | 0.878 | 0.887 | –
[3], first compound 0.25 µg/mL | – | – | – | 0.956
[3], first compound 0.5 µg/mL | – | – | – | 0.92
[3], first compound 1 µg/mL | – | 0.763 | 0.741 | 0.766

CCCCCCCCCC(=O)N[C@@H](Cc1c[nH]c2ccccc12)C(=O)N[C@H](CC(N)=O)C(=O)N[C@@H](CC(=O)O)C(=O)N[C@@H]1C(=O)NCC(=O)N[C@@H](CCCN)C(=O)N[C@@H](CC(=O)O)C(=O)N[C@H](C)C(=O)N[C@@H](CC(=O)O)C(=O)NCC(=O)N[C@H](CO)C(=O)N[C@@H]([C@H](C)CC(=O)O)C(=O)N[C@@H](CC(=O)c2ccccc2N)C(=O)O[C@@H]1C [Daptomycin] + CO/N=C(\C(=O)N[C@@H]1C(=O)N2C(C(=O)[O-])=C(C[N+]3(C)CCCC3)CS[C@H]12)c1csc(N)n1 [Cefepime]
fitness
Conditions | first compound 0.125 µg/mL | first compound 0.25 µg/mL | first compound 0.5 µg/mL | first compound 1 µg/mL | first compound 2 µg/mL | first compound 4 µg/mL
[1], partner 0.125 µg/mL | 0.935 | 0.941 | 0.967 | – | – | –
[1], partner 0.25 µg/mL | 0.854 | 0.874 | 0.874 | – | – | –
[1], partner 0.5 µg/mL | 0.8 | 0.797 | 0.799 | – | – | –
[2], partner 0.007 µg/mL | – | – | – | 0.917 | 0.942 | 0.476
[2], partner 0.0078 µg/mL | – | – | – | ≥ 1 | ≥ 1 | 0.964
[2], partner 0.014 µg/mL | – | – | – | 0.887 | 0.938 | 0.57
[2], partner 0.0155 µg/mL | – | – | – | 0.982 | ≥ 1 | 0.965
[2], partner 0.028 µg/mL | – | – | – | 0.813 | 0.82 | 0.48
[2], partner 0.031 µg/mL | – | – | – | 0.584 | 0.606 | 0.599
[4], partner 0.125 µg/mL | – | – | 0.846 | 0.938 | 0.934 | –
[4], partner 0.25 µg/mL | – | – | 0.88 | 0.89 | 0.887 | –
[4], partner 0.5 µg/mL | – | – | 0.869 | 0.877 | 0.844 | –

CCCCCCCCCC(=O)N[C@@H](Cc1c[nH]c2ccccc12)C(=O)N[C@H](CC(N)=O)C(=O)N[C@@H](CC(=O)O)C(=O)N[C@@H]1C(=O)NCC(=O)N[C@@H](CCCN)C(=O)N[C@@H](CC(=O)O)C(=O)N[C@H](C)C(=O)N[C@@H](CC(=O)O)C(=O)NCC(=O)N[C@H](CO)C(=O)N[C@@H]([C@H](C)CC(=O)O)C(=O)N[C@@H](CC(=O)c2ccccc2N)C(=O)O[C@@H]1C [Daptomycin] + CO[C@@]12[C@H](COC(N)=O)C3=C(C(=O)C(C)=C(N)C3=O)N1C[C@@H]1N[C@@H]12 [Mitomycin C]
fitness
Conditions | first compound 0.125 µg/mL | first compound 0.25 µg/mL | first compound 0.5 µg/mL | first compound 1 µg/mL | first compound 2 µg/mL | first compound 4 µg/mL
[1], partner 0.0156 µg/mL | 0.775 | 0.778 | 0.773 | – | – | –
[1], partner 0.0312 µg/mL | 0.702 | 0.692 | 0.688 | – | – | –
[1], partner 0.0625 µg/mL | 0.57 | 0.54 | 0.545 | – | – | –
[2], partner 0.001075 µg/mL | – | – | – | 0.897 | 0.905 | 0.94
[2], partner 0.002 µg/mL | – | – | – | 0.771 | 0.776 | 0.739
[2], partner 0.00215 µg/mL | – | – | – | 0.849 | 0.841 | 0.842
[2], partner 0.004 µg/mL | – | – | – | 0.617 | 0.558 | 0.504
[2], partner 0.0043 µg/mL | – | – | – | 0.719 | 0.723 | 0.723
[2], partner 0.008 µg/mL | – | – | – | 0.285 | 0.307 | 0.242
[4], partner 0.0156 µg/mL | – | – | 0.773 | 0.809 | 0.769 | –
[4], partner 0.0312 µg/mL | – | – | 0.791 | 0.778 | 0.744 | –
[4], partner 0.0625 µg/mL | – | – | 0.648 | 0.6 | 0.595 | –

Reference: the supplement of paper PMC10627819
